Measured values from US8148391B2 (Cephalon, Inc., priority 2006, dated 2012).
Like-named read-outs stand apart in the source and are kept apart here. Blank lines part the entries; values can stand above or below the compound they belong to.

Columns and labels:
[1] = target: T1, baculovirus-expressed ALK (Homo sapiens, UniProt Q9UM73); assay: ALK Kinase Assay (ELISA-type, time-resolved fluorescence); format: biochemical
T1 construct: host or cells: baculovirus expression system
In short: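 Wells were coated with phospholipase C-γ at 10 μg/mL in Tris-buffered saline. Adding 30 ng/ml enzyme started the reaction, which ran at 37° C for 15 minutes before Eu-N1 PT66 antibody detection. Percent inhibition versus log10 concentration gave IC50 by variable-slope fit.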

[2] = target: T2, c-Met (cytoplasmic domain) (Homo sapiens, UniProt P08581); assay: c-Met Kinase Assay (same methods as for ALK, with modifications); format: biochemical
T2 construct: 10 ng/mL c-Met (cytoplasmic domain, Invitrogen Corporation #PV3143); purchased Invitrogen Corporation PV3143
T2 sequence (P08581 956-1390 limits assumed): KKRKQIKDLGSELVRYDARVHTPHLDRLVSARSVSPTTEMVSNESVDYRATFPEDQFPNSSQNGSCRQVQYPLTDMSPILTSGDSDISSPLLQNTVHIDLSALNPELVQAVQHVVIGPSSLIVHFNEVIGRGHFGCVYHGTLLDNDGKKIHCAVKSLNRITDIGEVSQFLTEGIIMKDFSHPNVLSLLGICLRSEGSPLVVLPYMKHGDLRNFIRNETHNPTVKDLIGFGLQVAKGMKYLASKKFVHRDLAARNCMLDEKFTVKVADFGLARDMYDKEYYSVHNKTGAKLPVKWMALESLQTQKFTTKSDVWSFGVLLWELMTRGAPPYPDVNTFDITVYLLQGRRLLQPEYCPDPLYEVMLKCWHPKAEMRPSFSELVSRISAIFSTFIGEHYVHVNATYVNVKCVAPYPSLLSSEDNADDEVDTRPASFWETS
In short: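 Steps: coat wells with PLC-γ (10 μg/mL, Tris-buffered saline); add 10 ng/mL c-Met cytoplasmic domain to initiate; incubate 15 min, 37° C; detect phosphoproduct via Eu-N1 PT66 antibody.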

[3] = 1 μM ATP (Km level), 30 ng/ml ALK, 37° C., 15 minutes, read-out: ALK Activity (ALK kinase inhibition, IC50 class)
[4] = 1 μM ATP (Km level), 10 ng/mL c-Met, read-out: cMet Activity (c-Met kinase inhibition, IC50 class)
[5] = 1 μM ATP (Km level), read-out: ALK Activity (ALK Kinase Inhibition, IC50)
[6] = 1 μM ATP (Km level), read-out: cMet Activity (c-Met Kinase Inhibition, IC50)
[7] = ALK kinase inhibition, 1 μM ATP, read-out: ALK Activity
[8] = c-Met kinase inhibition, 1 μM ATP, read-out: cMet Activity
[9] = ALK kinase inhibition, 1 μM ATP (Km level), read-out: ALK Activity
[10] = c-Met kinase inhibition, 1 μM ATP (Km level), read-out: cMet Activity

T1 sequence (Q9UM73 19-1620): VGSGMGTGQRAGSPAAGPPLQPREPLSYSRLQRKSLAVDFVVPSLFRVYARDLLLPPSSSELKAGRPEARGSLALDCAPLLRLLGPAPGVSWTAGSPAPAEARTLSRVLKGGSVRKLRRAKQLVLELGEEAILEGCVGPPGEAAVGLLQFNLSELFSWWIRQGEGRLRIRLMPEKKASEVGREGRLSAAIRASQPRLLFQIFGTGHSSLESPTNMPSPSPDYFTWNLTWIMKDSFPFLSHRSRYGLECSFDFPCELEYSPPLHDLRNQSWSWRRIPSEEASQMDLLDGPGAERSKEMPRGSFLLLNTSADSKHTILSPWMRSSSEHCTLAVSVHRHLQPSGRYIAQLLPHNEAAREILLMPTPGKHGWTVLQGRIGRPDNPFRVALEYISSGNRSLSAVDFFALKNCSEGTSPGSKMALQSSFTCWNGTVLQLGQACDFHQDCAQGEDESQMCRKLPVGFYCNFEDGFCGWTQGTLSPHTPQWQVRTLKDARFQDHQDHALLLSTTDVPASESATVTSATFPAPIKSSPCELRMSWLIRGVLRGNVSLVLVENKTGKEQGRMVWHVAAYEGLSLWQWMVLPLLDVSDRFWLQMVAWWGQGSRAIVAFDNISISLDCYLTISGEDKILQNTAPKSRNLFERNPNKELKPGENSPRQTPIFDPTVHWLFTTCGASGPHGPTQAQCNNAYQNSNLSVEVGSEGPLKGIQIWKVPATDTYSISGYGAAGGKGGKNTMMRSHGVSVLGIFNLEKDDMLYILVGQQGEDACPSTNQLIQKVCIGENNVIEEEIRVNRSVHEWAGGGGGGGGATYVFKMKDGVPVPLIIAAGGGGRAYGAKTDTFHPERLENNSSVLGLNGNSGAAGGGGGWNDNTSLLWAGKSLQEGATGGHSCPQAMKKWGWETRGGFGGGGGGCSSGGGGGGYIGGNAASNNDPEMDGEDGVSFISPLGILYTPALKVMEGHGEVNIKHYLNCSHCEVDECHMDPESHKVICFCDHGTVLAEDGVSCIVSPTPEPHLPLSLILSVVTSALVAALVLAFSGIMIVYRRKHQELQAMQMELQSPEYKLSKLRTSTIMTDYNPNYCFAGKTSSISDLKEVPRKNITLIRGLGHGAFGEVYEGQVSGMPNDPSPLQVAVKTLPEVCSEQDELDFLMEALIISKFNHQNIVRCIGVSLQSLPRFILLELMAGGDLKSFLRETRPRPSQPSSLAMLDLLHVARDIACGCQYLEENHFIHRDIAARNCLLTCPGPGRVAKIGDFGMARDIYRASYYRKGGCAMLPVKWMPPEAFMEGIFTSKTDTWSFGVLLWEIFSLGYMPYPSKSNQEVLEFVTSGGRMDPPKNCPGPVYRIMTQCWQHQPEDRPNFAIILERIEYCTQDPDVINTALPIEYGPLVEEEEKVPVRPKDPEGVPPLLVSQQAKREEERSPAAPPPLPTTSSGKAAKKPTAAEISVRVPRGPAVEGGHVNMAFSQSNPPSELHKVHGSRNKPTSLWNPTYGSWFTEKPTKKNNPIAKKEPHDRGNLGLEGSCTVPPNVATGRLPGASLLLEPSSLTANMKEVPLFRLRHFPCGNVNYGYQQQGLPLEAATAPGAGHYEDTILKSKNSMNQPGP

Compound: COCC(COC)N1CCc2cc(Nc3ncc(Cl)c(Nc4ccccc4S(=O)(=O)N4CCCC4)n3)c(OC)cc2CC1 [Example 844, 5-Chloro-N*2*-[8-methoxy-3-(2-methoxy-1-methoxymethyl-ethyl)-2,3,4,5-tetrahydro-1H-benzo[d]azepin-7-yl]-N*4*-[2-(pyrrolidine-1-sulfonyl)-phenyl]-pyrimidine-2,4-diamine]
IC50 [1, 5]: < 0.1 µM
IC50 [2, 6]: 1 to 10 µM

Compound: COc1cc2c(cc1Nc1ncc(Cl)c(Nc3ccc(OC)c4c3C(=O)N(C)C4)n1)CCN(CC(=O)N(C)C)CC2 [Example 937, 2-{7-[5-Chloro-4-(7-methoxy-2-methyl-3-oxo-2,3-dihydro-1H-isoindol-4-ylamino)-pyrimidin-2-ylamino]-8-methoxy-1,2,4,5-tetrahydro-3-benzazepin-3-yl}-N,N-dimethyl-acetamide]
IC50 [1, 5]: < 0.1 µM
IC50 [2, 6]: > 10 µM

Compound: CCN1CCc2ccc(Nc3ncc(Cl)c(NCCC(=O)NC)n3)cc2CC1 [Example 211, 3-[5-Chloro-2-(3-ethyl-2,3,4,5-tetrahydro-1H-benzo[d]azepin-7-ylamino)-pyrimidin-4-ylamino]-N-methyl-propionamide]
IC50 [1, 9]: 0.1 to 1 µM
IC50 [2, 10]: 1 to 10 µM

Compound: COc1cc2c(cc1Nc1ncc(Cl)c(Nc3ccc(N4CCOCC4)cc3OC)n1)CCN(CC(N)=O)CC2 [Example 799, 2-{7-[5-Chloro-4-(2-methoxy-4-morpholin-4-yl-phenylamino)-pyrimidin-2-ylamino]-8-methoxy-1,2,4,5-tetrahydro-benzo[d]azepin-3-yl}-acetamide]
IC50 [1, 5]: < 0.1 µM
IC50 [2, 6]: > 10 µM

Compound: CNC(=O)c1ccccc1Nc1nc(Nc2ccc3c(c2)COCC2CCCCN32)ncc1Cl (stereo not drawn) [Example 14, 2-[5-Chloro-2-(7,7a,8,9,10,11-hexahydro-5H-6-oxa-11a-aza-dibenzo[a,c]cyclohepten-3-ylamino)-pyrimidin-4-ylamino]-N-methyl-benzamide]
IC50 [1, 9]: < 0.1 µM
IC50 [2, 10]: < 0.1 µM

Compound: Cc1ccc(-c2ccccc2Nc2nc(Nc3ccc4c(c3)CCCC(=O)N4C)ncc2Cl)nc1 [Example 1004, 7-{5-Chloro-4-[2-(5-methyl-pyridin-2-yl)-phenylamino]-pyrimidin-2-ylamino}-1-methyl-1,3,4,5-tetrahydro-benzo[b]azepin-2-one]
IC50 [1, 5]: 1 to 10 µM
IC50 [2, 6]: 1 to 10 µM

Compound: CC(=O)OCCN1CCSc2ccc(Nc3ncc(Cl)c(N[C@@H]4CCCC[C@H]4NS(C)(=O)=O)n3)cc2C1 [Example 526, Acetic acid 2-{2-[5-chloro-4-((1R,2R)-2-methanesulfonylamino-cyclohexylamino)-pyrimidin-2-ylamino]-6,7-dihydro-9H-5-thia-8-aza-benzocyclohepten-8-yl}-ethyl ester]
IC50 [1, 5]: < 0.1 µM
IC50 [2, 6]: 1 to 10 µM

Compound: COc1cc2c(cc1Nc1ncc(Cl)c(N[C@@H]3CCCC[C@H]3NS(C)(=O)=O)n1)CCN(CCNC(C)=O)CC2 [Example 256, N-(2-{7-[5-Chloro-4-((1R,2R)-2-methanesulfonylamino-cyclohexylamino)-pyrimidin-2-ylamino]-8-methoxy-1,2,4,5-tetrahydro-benzo[d]azepin-3-yl}-ethyl)-acetamide]
IC50 [1, 9]: < 0.1 µM
IC50 [2, 10]: > 10 µM

Compound: CS(=O)(=O)N[C@@H]1CCCC[C@H]1Nc1nc(Nc2cccc3c2OCCCC3)ncc1Cl [Example 863, N-{(1R,2R)-2-[5-Chloro-2-(2,3,4,5-tetrahydro-benzo[b]oxepin-9-ylamino)pyrimidin-4-ylamino]-cyclohexyl}-methanesulfonamide]
IC50 [1, 5]: < 0.1 µM
IC50 [2, 6]: > 10 µM

Compound: 8-{5-Chloro-4-[2-(2-morpholin-4-yl-ethoxy)-phenylamino]-pyrimidin-2-ylamino}-1,3,4,5-tetrahydro-benzo[b]azepin-2-one [Example 1464]
IC50 [1, 7]: 1 to 10 µM
IC50 [2, 8]: > 10 µM

Continued, values first:

IC50 [1, 3]: 0.1 to 1 µM
IC50 [2, 4]: 1 to 10 µM
Compound: COCCN1CCc2ccc(Nc3ncc(Cl)c(Oc4c(F)cccc4OC4CCOC4)n3)cc2CC1 (stereo not drawn) [Example 1308, {5-Chloro-4-[2-fluoro-6-(tetrahydro-furan-3-yloxy)-phenoxy]-pyrimidin-2-yl}-[3-(2-methoxy-ethyl)-2,3,4,5-tetrahydro-1H-3-benzazepin-7-yl]-amine]

IC50 [1, 3]: < 0.1 µM
IC50 [2, 4]: < 0.1 µM
Compound: CN1C(=O)CCCc2cc(Nc3ncc(Cl)c(Nc4c(F)cccc4C(=O)NCC#N)n3)ccc21 [Example 1045, 2-[5-Chloro-2-(1-methyl-2-oxo-2,3,4,5-tetrahydro-1H-benzo[b]azepin-7-ylamino)-pyrimidin-4-ylamino]-N-cyanomethyl-3-fluoro-benzamide]

IC50 [1, 7]: 0.1 to 1 µM
IC50 [2, 8]: 0.1 to 1 µM
Compound: CCN1CCCC(C)(C)c2ccc(Nc3ncc(Cl)c(Nc4c(F)cccc4C(=O)NC)n3)cc21 [Example 1632, 2-[5-Chloro-2-(1-ethyl-5,5-dimethyl-2,3,4,5-tetrahydro-1H-benzo[b]azepin-8-ylamino)-pyrimidin-4-ylamino]-3-fluoro-N-methyl-benzamide]

IC50 [1, 7]: 0.1 to 1 µM
IC50 [2, 8]: < 0.1 µM
Compound: CNC(=O)c1ccccc1Nc1nc(Nc2ccc3c(c2)-n2ccnc2CCC3)ncc1Cl [Example 1836, 2-[5-Chloro-2-(5,6-dihydro-4H-3,10b-diaza-benzo[e]azulen-9-ylamino)-pyrimidin-4-ylamino]-N-methyl-benzamide]

IC50 [1, 7]: 0.1 to 1 µM
IC50 [2, 8]: > 10 µM
Compound: CCN1CCCOc2cc(Nc3ncc(Cl)c(Nc4ccc(N5CCOCC5)cc4OC)n3)c(F)cc21 [Example 1688, 5-Chloro-N*2*-(9-ethyl-2-fluoro-6,7,8,9-tetrahydro-5-oxa-9-aza-benzocyclohepten-3-yl)-N*4*-(2-methoxy-4-morpholin-4-yl-phenyl)-pyrimidine-2,4-diamine]

IC50 [1, 3]: < 0.1 µM
IC50 [2, 4]: 1 to 10 µM
Compound: COCCNC1CCc2cc(Nc3ncc(Cl)c(Nc4ccccc4S(=O)(=O)N(C)C)n3)c(OC)cc2CC1 (stereo not drawn) [Example 1083, 2-{5-Chloro-2-[3-methoxy-7-(2-methoxy-ethylamino)-6,7,8,9-tetrahydro-5H-benzocyclohepten-2-ylamino]-pyrimidin-4-ylamino}-N,N-dimethyl-benzenesulfonamide]

IC50 [1, 3]: < 0.1 µM
IC50 [2, 4]: 0.1 to 1 µM
Compound: COCCN1CCc2ccc(Nc3ncc(Cl)c(NC4CCCCC4)n3)cc2CC1 [Example 1377, 5-Chloro-N(4)-cyclohexyl-N(2)-[3-(2-methoxy-ethyl)-2,3,4,5-tetrahydro-1H-benzo[d]azepin-7-yl]-pyrimidine-2,4-diamine]

IC50 [1, 7]: 0.1 to 1 µM
IC50 [2, 8]: < 0.1 µM
Compound: C#CCNC(=O)c1cccc(F)c1Nc1nc(Nc2ccc3c(c2)N(CC)C(=O)C(NC(=O)CN(C)C)CC3)ncc1Cl (stereo not drawn) [Example 1497, 2-{5-Chloro-2-[3-(2-dimethylamino-acetylamino)-1-ethyl-2-oxo-2,3,4,5-tetrahydro-1H-benzo[b]azepin-8-ylamino]-pyrimidin-4-ylamino}-3-fluoro-N-prop-2-ynyl-benzamide]

IC50 [1, 7]: 0.1 to 1 µM
IC50 [2, 8]: < 0.1 µM
Compound: CNC(=O)c1sccc1Nc1nc(Nc2ccc3c(c2)N(CCOC)C(=O)CCC3)ncc1Cl [Example 1478, 3-{5-Chloro-2-[1-(2-methoxy-ethyl)-2-oxo-2,3,4,5-tetrahydro-1H-benzo[b]azepin-8-ylamino]-pyrimidin-4-ylamino}-thiophene-2-carboxylic acid methylamide]

IC50 [1, 7]: < 0.1 µM
IC50 [2, 8]: 1 to 10 µM
Compound: COCCN1CCc2ccc(Nc3ncc(Cl)c(Nc4ccc(N5CCOCC5)cc4OCCC#N)n3)cc2CC1 [Example 1689, 3-(2-{5-Chloro-2-[3-(2-methoxy-ethyl)-2,3,4,5-tetrahydro-1H-benzo[d]azepin-7-ylamino]-pyrimidin-4-ylamino}-5-morpholin-4-yl-phenoxy)-propionitrile]

IC50 [1, 7]: < 0.1 µM
IC50 [2, 8]: 0.1 to 1 µM
Compound: CNC(=O)c1ccccc1Nc1nc(Nc2ccc3c(c2)N(CCOC)C(=O)CCC3(C)C)ncc1Cl [Example 1585, 2-{5-Chloro-2-[1-(2-methoxy-ethyl)-5,5-dimethyl-2-oxo-2,3,4,5-tetrahydro-1H-benzo[b]azepin-8-ylamino]-pyrimidin-4-ylamino}-N-methyl-benzamide]

IC50 [1, 7]: 0.1 to 1 µM
IC50 [2, 8]: < 0.1 µM
Compound: CCN1CC(O)(CO)COc2cc(Nc3ncc(Cl)c(Nc4c(F)cccc4C(=O)NC)n3)ccc21 (stereo not drawn) [Example 1736, 2-[5-Chloro-2-(9-ethyl-7-hydroxy-7-hydroxymethyl-6,7,8,9-tetrahydro-5-oxa-9-aza-benzocyclohepten-3-ylamino)-pyrimidin-4-ylamino]-3-fluoro-N-methyl-benzamide]

IC50 [1, 7]: 0.1 to 1 µM
IC50 [2, 8]: 0.1 to 1 µM
Compound: CNC(=O)c1sccc1Nc1nc(Nc2ccc3c(c2)NC(=O)CCC3)ncc1Cl [Example 1477, 3-[5-Chloro-2-(2-oxo-2,3,4,5-tetrahydro-1H-benzo[b]azepin-8-ylamino)-pyrimidin-4-ylamino]-thiophene-2-carboxylic acid methylamide]

IC50 [1, 7]: < 0.1 µM
IC50 [2, 8]: > 10 µM
Compound: CCN1CC(=O)Nc2cc(Nc3ncc(Cl)c(N[C@@H]4CCCC[C@H]4NS(C)(=O)=O)n3)c(OC)cc2C1 [Example 1658, N-{(1R,2R)-2-[5-Chloro-2-(4-ethyl-7-methoxy-2-oxo-2,3,4,5-tetrahydro-1H-benzo[e][1,4]diazepin-8-ylamino)-pyrimidin-4-ylamino]-cyclohexyl}-methane-sulfonamide]
